These results are taken from patent US9012428B2, “Uracyl spirooxetane nucleoside phosphoramidates” (Janssen Products, LP, priority 2010, dated 2015).

By CC50 is commonly meant the concentration that lowers cell viability or growth by half. For orientation: EC50 means the midpoint of the concentration-response curve. A high value points to a less potent agent.

Structures are written as SMILES. Where only a bound is given, the exact number is not on record here.

One series has as its system HIV. The conditions noted are these: literature report; cited from earlier work.
Series [1] in a line: Cytotoxicity in Huh-7 cells. The following applies: human. The format is cell-based. The protocol:
(§1) The in vitro antiviral activity against HCV of the compound of formula I was tested in a cellular HCV replicon system based on Lohmann et al. (1999) Science 285:110-113, with the further modifications described by Krieger et al. (2001) Journal of Virology 75: 4614-4624 (incorporated herein by reference), which is further exemplified in the examples section. This model, while not a complete infection model for HCV, is widely accepted as the most robust and efficient model of autonomous HCV RNA replication currently available. It will be appreciated that it is important to distinguish between compounds that specifically interfere with HCV functions from those that exert cytotoxic or cytostatic effects in the HCV replicon model, and as a consequence cause a decrease in HCV RNA or linked reporter enzyme concentration. Assays are known in the field for the evaluation of cellular cytotoxicity based for example on the activity of mitochondrial enzymes using fluorogenic redox dyes such as resazurin. Furthermore, cellular counter screens exist for the evaluation of non-selective inhibition of linked reporter gene activity, such as firefly luciferase. […]

The next series has as its system HCV type 1b replicon. Briefly: HCV replicon assay (Huh-Luc, luciferase readout). The format is cell-based. The following applies: Hepatitis C virus, 72 h; Huh-Luc replicon cells, three days incubation, luciferase activity. The protocol: as §1, with “concentration.” for “concentration. Assays are known in the field for the evaluation of cellular cytotoxicity based for example on the activity of mitochondrial enzymes using fluorogenic redox dyes such as resazurin. Furthermore, cellular counter screens exist for the evaluation of non-selective inhibition of linked reporter gene activity, such as firefly luciferase.”
The replicon cells were plated in 384-well plates in the presence of the test and control compounds which were added in various concentrations. Following an incubation of three days, HCV replication was measured by assaying luciferase activity (using standard luciferase assay substrates and reagents and a Perkin Elmer ViewLux™ ultraHTS microplate imager). […] The inhibitory activity of the compound on luciferase activity was monitored on the Huh-Luc cells, enabling a dose-response curve for the test compound. […]
On the technique in general: A replicon is a self-replicating genome or part of one, used to study replication in cells.

`Cc1cn([C@@H]2O[C@H](CO)[C@@H](O)[C@]23CCO3)c(=O)[nH]c1=O` [1-(2-O,2-C-ethano-β-D-ribofuranosyl)thymine]: the “activity against HIV” value with HIV is listed as “no activity was found”.
`O=c1ccn([C@@H]2O[C@H](CO)[C@@H](O)[C@]23CCO3)c(=O)[nH]1` [1-(2-O,2-C-ethano-β-D-ribofuranosyl)uracil]: the “activity against HIV” value in the series with HIV is “no activity was found”.
With `CCCCOC(=O)[C@H](C)N[P@](=O)(OC[C@H]1O[C@@H](n2ccc(=O)[nH]c2=O)[C@@]2(CCO2)[C@@H]1O)Oc1ccccc1` [Compound P1, butyl N—[(S)-{[(4R,5R,7R,8R)-5-(2,4-dioxo-3,4-dihydro-pyrimidin-1(2H)-yl)-8-hydroxy-1,6-dioxaspiro[3.4]oct-7-yl]methoxy}(phenoxy)-phosphoryl]-L-alaninate], the CC50 in series [1] was more than 98 µM. The same compound yielded an EC50 in the series on HCV type 1b replicon of 2.51 µM.
